In US20220242872A1, “E3 LIGASE BINDERS AND USES THEREOF” (DANA-FARBER CANCER INSTITUTE, INC., priority 2019, published 2022):
Entries after “also recorded” stand apart in the source; their conditions may differ.

What was measured:
IKZF1 [1] = target: T1, IKZF1 (Homo sapiens, UniProt Q13422+Q96SW2); experiment: Degradation of IKZF upon 24 hours treatment (FIG. 3); format: cell-based; design: endogenous in cells; details: 293T WT cells (legend also says Jurkat WT)
Experimental: (§1) The results of an assay for CRBN binding (and degradation of IKZF or actin) upon treatment for 24 hours with exemplary compounds Qi-01-68, JADA53, and positive control lenalidomide (at the indicated concentrations in μM) in 293T WT cells (homo sapiens kidney cell line; wild type) are shown in FIG. 3.

CRBN [2] = target: T2, CRBN (Homo sapiens, UniProt Q96SW2); experiment: CRBN Fluorescence Polarization (FP) displacement assay; format: binding; design: His6 (N); details: displacement of Atto565-lenalidomide from DDB1ΔB-CRBN; FIGS. 1, 4, 6A, 7
T2 sequence (Q96SW2 whole entry): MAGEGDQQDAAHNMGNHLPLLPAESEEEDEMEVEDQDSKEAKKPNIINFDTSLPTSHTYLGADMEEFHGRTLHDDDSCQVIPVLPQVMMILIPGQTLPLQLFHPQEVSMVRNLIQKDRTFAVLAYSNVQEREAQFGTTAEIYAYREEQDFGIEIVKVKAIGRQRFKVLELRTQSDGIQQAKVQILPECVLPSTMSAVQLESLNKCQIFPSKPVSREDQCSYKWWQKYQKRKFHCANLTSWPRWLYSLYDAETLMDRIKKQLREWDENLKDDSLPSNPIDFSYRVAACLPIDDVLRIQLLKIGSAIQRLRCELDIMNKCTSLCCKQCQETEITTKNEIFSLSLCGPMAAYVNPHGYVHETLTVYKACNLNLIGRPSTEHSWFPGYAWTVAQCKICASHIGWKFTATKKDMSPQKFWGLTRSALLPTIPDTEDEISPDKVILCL
Experimental: Conditions for CRBN Fluorescence Polarization (FP) displacement assay: Atto565-conjugated lenalidomide (10 nM) was mixed with increasing concentration of purified his6-DDB1AB-his6—CRBN (10 μM final top concentration, 2-fold, 23-point dilution and DMSO control) in 384-well microplates (Corning, 4514) and incubated for 15 minutes (min) at room temperature (rt). The change in fluorescence polarization was monitored using a PHERAstar® FS microplate reader (BMG Labtech) for 20 min in 120 s cycles. The Atto565-lenalidomide bound fraction was calculated and the Kd was obtained from a fit in GraphPad Prism 7. Compounds in Atto565-Lenalidomide displacement assay were dispensed in a 384-well microplate (Corning®, 4514) using D300e Digital Dispenser (HP) normalized to 2% DMSO into 10 nM Atto565-Leanlidomide, 100 nM DDB1ΔB-CRBN, 50 mM Tris pH 7.5, 200 mM NaCl, 0.1% Pluronic® F-68 solution (Sigma), 0.5 mg/ml BSA (Sigma) containing 2% DMSO (4% DMSO final). The change in fluorescence polarization was monitored using a PHERAstar® FS microplate reader (BMG Labtech) for 20 min in 200 s cycles. IC50 values estimated using variable slope equation in GraphPad Prism 7.

IKZF3 = target: T3, IKZF3 (Homo sapiens, UniProt Q96SW2+Q9UKT9); experiment: 24 hour IKZF Western Blot in Jurkat cells (FIG. 5), IKZF3; format: cell-based
T3 construct: endogenous in cells; host or cells: Jurkat
T3 sequence (Q9UKT9 whole entry): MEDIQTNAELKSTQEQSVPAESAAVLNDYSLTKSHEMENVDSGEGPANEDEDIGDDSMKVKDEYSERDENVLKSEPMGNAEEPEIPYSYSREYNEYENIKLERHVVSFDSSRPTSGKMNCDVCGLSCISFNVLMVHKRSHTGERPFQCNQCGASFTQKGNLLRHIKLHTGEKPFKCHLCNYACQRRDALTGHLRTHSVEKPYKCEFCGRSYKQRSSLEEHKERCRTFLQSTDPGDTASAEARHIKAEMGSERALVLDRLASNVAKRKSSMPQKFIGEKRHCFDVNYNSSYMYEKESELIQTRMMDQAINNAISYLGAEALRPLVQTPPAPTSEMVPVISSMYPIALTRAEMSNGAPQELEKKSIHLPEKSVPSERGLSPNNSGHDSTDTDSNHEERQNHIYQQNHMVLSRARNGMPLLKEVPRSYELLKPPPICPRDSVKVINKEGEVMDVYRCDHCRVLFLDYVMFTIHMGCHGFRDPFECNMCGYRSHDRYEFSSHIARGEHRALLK
T3 sequence (Q96SW2 whole entry): as the sequence (Q96SW2 whole entry) above
T3 sequence (Q16531 whole entry partner): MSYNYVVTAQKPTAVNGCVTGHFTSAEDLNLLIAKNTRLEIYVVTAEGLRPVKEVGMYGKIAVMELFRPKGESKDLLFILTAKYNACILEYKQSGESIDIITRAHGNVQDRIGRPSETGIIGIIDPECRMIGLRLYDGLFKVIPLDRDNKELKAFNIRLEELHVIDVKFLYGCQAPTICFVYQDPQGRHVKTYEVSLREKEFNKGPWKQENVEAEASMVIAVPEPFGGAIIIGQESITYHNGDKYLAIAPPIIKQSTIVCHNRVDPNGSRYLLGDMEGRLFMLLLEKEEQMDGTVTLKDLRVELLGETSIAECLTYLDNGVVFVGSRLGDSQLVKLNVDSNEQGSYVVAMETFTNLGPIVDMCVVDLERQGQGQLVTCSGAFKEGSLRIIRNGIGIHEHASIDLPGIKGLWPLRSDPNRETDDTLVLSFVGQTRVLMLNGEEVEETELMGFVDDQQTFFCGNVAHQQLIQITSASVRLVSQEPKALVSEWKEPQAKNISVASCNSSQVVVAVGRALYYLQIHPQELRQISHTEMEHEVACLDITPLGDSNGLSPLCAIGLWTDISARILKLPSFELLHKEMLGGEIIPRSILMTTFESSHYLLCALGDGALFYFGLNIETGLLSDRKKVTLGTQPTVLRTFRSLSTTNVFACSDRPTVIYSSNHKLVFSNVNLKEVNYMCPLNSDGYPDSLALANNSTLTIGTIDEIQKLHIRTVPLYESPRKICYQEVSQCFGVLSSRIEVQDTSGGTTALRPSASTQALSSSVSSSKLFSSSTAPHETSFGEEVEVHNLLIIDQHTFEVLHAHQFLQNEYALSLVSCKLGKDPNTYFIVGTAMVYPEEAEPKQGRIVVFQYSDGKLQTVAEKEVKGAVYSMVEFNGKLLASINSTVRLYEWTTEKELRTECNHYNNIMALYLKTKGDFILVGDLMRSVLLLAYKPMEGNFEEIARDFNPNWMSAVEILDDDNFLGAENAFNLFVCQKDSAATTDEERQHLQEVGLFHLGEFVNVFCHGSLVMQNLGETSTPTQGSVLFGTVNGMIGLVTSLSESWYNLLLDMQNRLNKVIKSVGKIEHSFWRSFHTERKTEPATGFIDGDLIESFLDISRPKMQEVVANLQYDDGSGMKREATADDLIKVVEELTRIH
Experimental: (§2) Exemplary close analogues had low activity against CRBN (FIG. 4). For the IKZF Western Blot, the cell is Jurkat, the exemplary compounds for treatment are JADA3, 32, 53, and lenalidomide, and the time point is 24 hours (FIG. 5).
(§3) Conditions for Western blot:
(§4) Jurkat cells were seeded in 6 well plates, followed by the compound treatment for 24 hours. Primary and secondary antibodies used included anti-IKZF1 at 1:1000 dilution, anti-IKZF2 at 1:1,000 dilution, anti-IKZF3 at 1:1000 dilution, anti-ACTIN at 1:5,000 dilution, IRDye®680 Donkey anti-mouse at 1:5,000 dilution (926-68072, LiCor®, Lot: C61116-05) and IRDye®800 Goat anti-rabbit at 1:5,000 dilution (926-32211, LiCor®, Lot: C70301-05).

CRBN [3] = target: T2, CRBN; experiment: Assay for CRBN binding in the cell, 24 hours treatment (FIG. 3); format: cell-based; design: endogenous in cells; details: 293T WT cells (legend also says Jurkat WT)
Experimental: as §1

IKZF1 [4] = target: T1, IKZF1; experiment: 24 hour IKZF Western Blot in Jurkat cells (FIG. 5), IKZF1; format: cell-based; design: endogenous in cells; host or cells: Jurkat
Experimental: as §2, §3, §4

T1 sequence (Q13422 whole entry): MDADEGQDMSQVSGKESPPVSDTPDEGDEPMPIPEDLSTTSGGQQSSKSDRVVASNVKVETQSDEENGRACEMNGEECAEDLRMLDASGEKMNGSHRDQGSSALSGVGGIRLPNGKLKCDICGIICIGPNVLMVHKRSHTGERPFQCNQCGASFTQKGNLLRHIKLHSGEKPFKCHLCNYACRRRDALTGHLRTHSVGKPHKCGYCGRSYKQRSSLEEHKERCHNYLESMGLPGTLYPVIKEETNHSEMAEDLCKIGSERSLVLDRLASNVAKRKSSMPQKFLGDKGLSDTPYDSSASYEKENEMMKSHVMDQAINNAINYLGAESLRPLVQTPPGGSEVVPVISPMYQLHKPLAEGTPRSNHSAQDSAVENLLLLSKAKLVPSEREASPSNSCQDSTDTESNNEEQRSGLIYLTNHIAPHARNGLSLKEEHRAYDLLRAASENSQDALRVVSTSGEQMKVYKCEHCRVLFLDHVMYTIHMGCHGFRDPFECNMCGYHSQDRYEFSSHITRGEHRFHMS
T1 sequence (Q96SW2 whole entry): as the sequence (Q96SW2 whole entry) above
T1 sequence (Q16531 whole entry partner): as the sequence (Q16531 whole entry partner) above

In the case of `Cc1[nH]c2c(-c3cnn(-c4cc(OCCN)ccn4)c3)cnn2c(=O)c1C(C)C` [JADA53], the “degradation of IKZF / IKZF1 in cell” value (IKZF1 [1]) was “can degrade IKZF; also recorded: degraded IKZF”, the “CRBN binding activity (FP displacement)” value (CRBN [2]) was “binds CRBN” and the “degradation of IKZF3 in cells (Western Blot)” value (IKZF3) was “degraded”. For the same compound, the “binding of target CRBN in the cell” value (CRBN [3]) was “good binding” and the “degradation of IKZF1 in cells (Western Blot)” value (IKZF1 [4]) was “degraded”.
